One assay relates to S. aureus USA300 LAC. Briefly: Neutropenic thigh infection model. To be noted: neutropenic CD-1 mice, MRSA clinical isolate; 5 mg/kg retro-orbital IV 2 and 7 h postinfection; burden at 24 h. The class given is in vivo, mouse. The procedure:
Neutropenic thigh infection model
Acclimated CD-1 mice (see above) were rendered neutropenic prior to the experiment via cyclophosphamide treatment. […]
For the gram-positive infection model S. aureus USA300LAC was established intramuscular injection at 2.3 * 10^6 CFU/mouse. Mice were treated with FabI inhibitors at 2 and 7 hours post-infection with burden being assessed at 24 hours post-infection. […]
The protocol to assess fabimycin’s efficacy in A. baumannii-infected mice (strain: AR-0088) was approved by the IACUC at Pharmacology Discovery Services, Taiwan, Ltd. (protocol number: IM003-01282019). In this study, neutropenic female BALB/c mice 7-8 weeks in age from BioLASCO Taiwan (AAALAC-certified Charles River Licensee) weighing 18 ± 2 grams were used. The mice were rendered neutropenic and inoculated in the same method as used for the pharmacokinetic study. […]
Animals were euthanized using compressed CO2 gas in a CO2 gas chamber. […] Bacterial burden in the tissue homogenates was determined by performing 10-fold serial dilutions and plating 0.1 mL of each to nutrient agar plates. Colonies were counted after 18 - 24 h incubation. The colony-forming unit value per tissue (CFU/thigh) was calculated. […]
IM011-12282020). […] Tissues were collected and pathogen burden evaluated by dilution plating technique on nutrient agar plates.

Assay [1] deals with panel of 10 clinical isolates (two E. coli, four K. pneumoniae, four A. baumannii). Briefly: MIC, Gram-negative clinical isolate challenge panel. The class given is cell-based. To be noted: Gram-negative clinical isolates; fabimycin relative to (R)-7.
Another assay deals with E. coli MG1655. Briefly: Selection of resistant mutants, mutant prevention concentration. The class given is cell-based, Escherichia coli. As to conditions: 32x MIC, 0 colonies. The procedure: Selection of resistant mutants
Resistant mutants were generated using the large inoculum method. Briefly, S. aureus 29213, E. coli MG1655, and A. baumannii 19606 (~1 x 1010 CFUs) was plated on 100-mm plates (E. coli and A. baumannii) or 150-mm plates (S. aureus) of MH agar containing either 128, 64, or 32 µg/mL fabimycin (for gram-negatives) or 0.125, 0.062, and 0.031 µg/mL fabimycin (for S. aureus). Plates were incubated at 37 °C for 48 h and counted for the presence of colony forming units.
Glycerol stocks of selected colonies were made, and resistant colonies confirmed by growing on agar plates containing the same concentration of fabimycin that they were generated at.
Sequencing of bacterial fabI
The FabI gene was amplified by PCR. Fabimycin-resistant colonies were picked and diluted in 100 µL sterile, nuclease-free H2O. […] A 10 µL portion of PCR reaction mixture was analyzed by agarose gel electrophoresis to confirm the single 1.4-kilobase pair product. […]
Candidate drugs were incubated with plasma and parent drug levels were monitored at various time points (generally t=0, 10, 20, 30, and 60 minutes) to determine the drug’s half-life in the presence of the chosen system. […] The supernatant was collected after centrifugation, and the sample analyzed by LC-MS where the percentage of compound remaining is plotted vs time to determine the drug’s half-life. […]

Regarding `Cc1c(CN(C)C(=O)/C=C/c2cnc3c(c2)CC[C@H](N)C(=O)N3)oc2ccccc12` [fabimycin], the “reduction of bacterial burden” value in the assay with S. aureus USA300 LAC is recorded as “significantly greater reduction of bacterial burden relative to Debio-1452”. In assay [1], the “difference in MIC activity between the two enantiomers” value was 64–128 fold. In addition, the “mutant prevention concentration (MPC)” value with E. coli MG1655 came out at 64 µg/mL.

Source of the values: paper PMC9413440, “An Iterative Approach Guides Discovery of the FabI Inhibitor Fabimycin, a Late-Stage Antibiotic Candidate with In Vivo Efficacy against Drug-Resistant Gram-Negative Infections” (ACS Central Science, 2022).
